Data from US12600698B2, “Kinase inhibitors” (Vidya Therapeutics, Inc., priority 2021, dated 2026).
pIC50: −log10 of the molar value.

The compounds below were run against T1, BTK (Homo sapiens, UniProt Q06187) (assay: Assay to determine BTK inactivation rate (active site probe ELISA, human whole blood)). Details: 37° C., 5-60 minutes, read-out: BTK hWB (Kinact/Ki).
Assay type: cell-based
Parameters: tissue StemExpress; host or cells: human whole blood
Protocol: This example employed a BTK active site probe-based assay using a biotinylated covalent inhibitor in human and mouse blood or mouse brain lysate.
Human whole blood was obtained from StemExpress (Stockton, CA) and kept at ambient temperature until the time of the experiment, which was approximately 24 hours after it had been collected. • 1. A 1× lysis buffer was prepared by using 10× lysis buffer (Cell Signaling Technology, #9083S, Danvers, MA), molecular biology grade water, 100× Halt Protease and Phosphatase Inhibitor Cocktail, (ThermoFisher, #78440, Waltham, MA), and BTK active site probe (final: 0.4 μM). This was prepared fresh each experimental day. • 2. Lysis buffer was added in the volume of 30 μL to all wells in a V-bottom plate (Greiner Bio-One, #651261, Monroe, NC) in preparation for timepoint collections. • 3. Compounds were reconstituted to stocks of 10 mM in 100% DMSO and were diluted in 2-fold serial dilutions to generate an 8-point curve in DMSO, with the last point being DMSO only. • 4. A working 10× dilution series was created using 1 μL of the prepared DMSO titration into […] 1×PBS in order to keep the DMSO constant (0.03% DMSO final). • 5. The whole blood was added in the volume of 225 μL per well in a new 96 w v-bottom plate. • 6. For compound treatment, 25 μL of the 10× dilution series in PBS was added to the 225 μL whole blood, followed by briefly pipetting up and down, twice. • 7. The plates were then covered with plastic lids and incubated at 37° C. for 5, 10, 15, 30, 60 minutes. • 8. At each timepoint, 30 μL of compound- or DMSO (vehicle)-treated blood is pulled from each column and added to preloaded collection plates that contained 30 μL of lysis buffer supplemented with BTK active site probe. Samples were then mixed briefly by pipetting up and down, twice. • 9. The plates with collected and lysed samples were shaken and covered with sealing film on a rotator for 60 minutes at room temperature. These samples were used fresh for detection via ELISA, and remaining sample was frozen at −80° C. if a repeat was necessary. Determining Amount of Unoccupied BTK Using ELISA • 1. All streptavidin pre-coated plates (R&D Systems, #CP004, Minneapolis, MN) were brought to room temperature while samples are lysing. • 2. Assay Buffer 1, 1×PBS+0.05% Tween 20+1% BSA was prepared, filtered, and stored at 4° C. when not in use. • 3. Using this Assay Buffer 1, assay buffer+1× protease/phosphatase inhibitor cocktail (PICS) was prepared in the amount needed for all samples. • 4. Assay Buffer+PICS in the volume of 90 μL/well was added to the ELISA plate for blood samples. • 5. Assay Buffer+PICs in the volume of 50 μL/well was added to the ELISA plate for brain samples. • 6. Lysed blood sample (10 μL) was added to the ELISA plate. • 7. Lysed brain sample (50 μL) was added to the ELISA plate. • 8. Samples were loaded into the ELISA plate for a total of 100 μL/well, in duplicate, and remained in the plate, sealed, overnight at 4° C. • 9. The following day, the plate was washed three times with 1× Wash Buffer (1×PBS+0.05% Tween 20) at 250 μL/well using a plate washer. • 10. The plate was inverted to expel all fluid each time and blotted on clean paper towels to remove remaining liquid. • 11. Assay Buffer 2 was prepared (1×PBS+0.05% Tween 20+0.5% BSA) and kept at 4° C. when not in use. • 12. The primary antibody α-BTK (clone D3H5, Cell Signaling Technology #8547S Danvers, MA) was diluted 1:500 in Assay Buffer 2. • 13. Diluted a-BTK antibody was added at 100 μL/well. • 14. The plate was covered with adhesive film and incubated for 90 minutes at room temperature. • 15. The plate was washed three times with 1× Wash Buffer at 250 μL/well using a plate washer. • 16. The plate was inverted to expel all fluid each time and blotted on clean paper towels to remove remaining liquid. • 17. The detection antibody (Jackson Immuno Research, #711-005-152) was diluted 1:2,500 with Assay Buffer 2. • 18. The diluted antibody was added at 100 μL/well. • 19. […]

T1 sequence (Q06187 whole entry): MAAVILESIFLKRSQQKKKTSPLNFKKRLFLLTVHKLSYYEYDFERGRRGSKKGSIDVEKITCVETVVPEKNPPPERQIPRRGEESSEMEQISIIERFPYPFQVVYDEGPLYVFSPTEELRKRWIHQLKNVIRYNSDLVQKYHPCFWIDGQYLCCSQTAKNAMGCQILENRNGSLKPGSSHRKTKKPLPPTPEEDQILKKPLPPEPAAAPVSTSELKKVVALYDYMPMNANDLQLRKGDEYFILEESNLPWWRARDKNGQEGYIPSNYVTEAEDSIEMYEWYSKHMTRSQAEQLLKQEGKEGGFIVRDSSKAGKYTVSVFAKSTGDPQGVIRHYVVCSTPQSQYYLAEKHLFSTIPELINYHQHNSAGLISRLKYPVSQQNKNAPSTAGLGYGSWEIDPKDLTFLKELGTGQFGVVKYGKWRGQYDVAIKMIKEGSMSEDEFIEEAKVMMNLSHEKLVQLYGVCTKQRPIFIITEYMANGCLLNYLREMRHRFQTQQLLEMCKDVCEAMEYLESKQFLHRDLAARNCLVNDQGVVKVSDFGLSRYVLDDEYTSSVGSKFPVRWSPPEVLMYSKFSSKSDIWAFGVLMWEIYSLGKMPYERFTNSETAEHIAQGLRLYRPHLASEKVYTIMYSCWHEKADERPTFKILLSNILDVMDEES

Row | kinact/KI | SMILES
1 | < 8330 M⁻¹ s⁻¹ | CC#CC(=O)N[C@@H]1CCC[C@H](c2c(F)cc(C(N)=O)c3[nH]c(C)c(Cl)c23)C1 (relative stereo) [Compound 6-(cis), 4-((cis)-3-(but-2-ynamido)cyclohexyl)-3-chloro-5-fluoro-2-methyl-1H-indole-7-carboxamide]

The compounds below were run against T1, BTK (assay: BTK IC50 (EZ reader kinase assay)). Details: ATP 1 mM, BTK 2 nM, 90 minutes at room temperature.
Assay type: biochemical
Parameters: purchased Carna
Protocol: Solutions of compounds (test or control) in DMSO were prepared at the desired concentrations, and serially diluted to 11 concentrations by 3-fold dilution in 384pp-plate using TECAN EVO200. 20 nL of stock were transferred to 384 plate using Echo550. DMSO was used as vehicle control.
Two separate solutions were prepared—an ATP solution containing MgCl2 (10 mM), Brij-35 (0.01%), DTT (2 mM), BSA (0.05%), EGTA (1 mM), HEPE (pH7.5) (50 mM), FLPeptide (6 uM) and ATP (4 mM); and a BTK solution containing MgCl2 (10 mM), Brij-35 (0.01%), DTT (2 mM), BSA (0.05%), EGTA (1 mM), HEPE (pH7.5) (50 mM) and BTK (2.67 nM). (BTK was obtained from Carna; FLPeptide2 was obtained from PerkinElmer and Ibrutinib was obtained from Selleck.) 5 uL of ATP solution were added to each well, followed by addition of 15 uL of BTK solution to initiate the reaction. (Note the final volume of each well was 20 uL containing MgCl2 (10 mM), Brij-35 (0.01%), DTT (2 mM), BSA (0.05%), EGTA (1 mM), HEPE (pH7.5) (50 mM), FLPeptide (1.5 uM), ATP (1 mM) and BTK (2 nM). The plates were incubated at room temperature for 90 minutes and then stopping buffer added (75 uL, containing 0.5 M EDTA) to terminate the reaction. Samples from each well were analyzed using EZ reader.
The % remaining activity was calculated using read conversion ratio (CR) according to the equation: […]
XLFit (equation 201) was used to calculate IC50's by floating both bottom and top.
BTK IC50 values are provided in Table 5, for the compounds described in Examples 1-13, wherein: • “A” denotes an IC50<1 nM; • “B” denotes an IC50 1-10 nM; and • “C” denotes an IC50>10 nM.

Row | pIC50 | SMILES
2 | 8.00 to 9.00 | CC#CC(=O)NC1CCC=C(c2c(F)cc(C(N)=O)c3[nH]c(C)c(Cl)c23)C1 (racemic) [1A(rac), 4-(5-(but-2-ynamido)cyclohex-1-en-1-yl)-3-chloro-5-fluoro-2-methyl-1H-indole-7-carboxamide]
3 | 8.00 to 9.00 | CC#CC(=O)NC1C=C(c2c(F)cc(C(N)=O)c3[nH]c(C)c(Cl)c23)CCC1 (racemic) [5B(rac), 4-(3-(but-2-ynamido)cyclohex-1-en-1-yl)-3-chloro-5-fluoro-2-methyl-1H-indole-7-carboxamide]
4 | 8.00 to 9.00 | CC#CC(=O)N[C@@H]1CCC[C@H](c2c(F)cc(C(N)=O)c3[nH]c(C)c(Cl)c23)C1 (relative stereo) [Compound 6-(cis), 4-((cis)-3-(but-2-ynamido)cyclohexyl)-3-chloro-5-fluoro-2-methyl-1H-indole-7-carboxamide]
5 | 8.00 to 9.00 | CC#CC(=O)N[C@H]1CCC[C@H](c2c(F)cc(C(N)=O)c3[nH]c(C)c(Cl)c23)C1 (relative stereo) [Compound 6-(trans), 4-((trans)-3-(but-2-ynamido)cyclohexyl)-3-chloro-5-fluoro-2-methyl-1H-indole-7-carboxamide]
6 | 8.00 to 9.00 | CC#CC(=O)N(C)[C@H]1CCC=C(c2c(F)cc(C(N)=O)c3[nH]c(C)c(C)c23)C1 [4A(S), (S)-5-fluoro-2,3-dimethyl-4-(5-(N-methylbut-2-ynamido)cyclohex-1-en-1-yl)-1H-indole-7-carboxamide]
7 | 8.00 to 9.00 | CC#CC(=O)N(C)[C@@H]1C=C(c2c(F)cc(C(N)=O)c3[nH]c(C)c(C)c23)CCC1 [4B(S), (S)-5-fluoro-2,3-dimethyl-4-(3-(N-methylbut-2-ynamido)cyclohex-1-en-1-yl)-1H-indole-7-carboxamide]
8 | 8.00 to 9.00 | CC#CC(=O)N[C@H]1C=C(c2c(F)cc(C(N)=O)c3[nH]c(C)c(Cl)c23)CCC1 [5B(R), (R)-4-(3-(but-2-ynamido)cyclohex-1-en-1-yl)-3-chloro-5-fluoro-2-methyl-1H-indole-7-carboxamide]
9 | < 8.00 | CC#CC(=O)N[C@@H]1CCC[C@@H](c2c(F)cc(C(N)=O)c3[nH]c(C)c(Cl)c23)C1 [6-(1R,3R), 4-((1R,3R)-3-(but-2-ynamido)cyclohexyl)-3-chloro-5-fluoro-2-methyl-1H-indole-7-carboxamide]
10 | < 8.00 | CC#CC(=O)N[C@H]1CCC[C@H](c2c(F)c(F)c(C(N)=O)c3[nH]c(C)c(Cl)c23)C1 [11-(1S,3S), 4-[(1S,3S)-3-(but-2-ynoylamino)cyclohexyl]-3-chloro-5,6-difluoro-2-methyl-1H-indole-7-carboxamide]
11 | < 8.00 | CC#CC(=O)N[C@H]1CC[C@H](c2c(F)cc(C(N)=O)c3[nH]c(C)c(C)c23)C1 [12-(1S,3S), 4-((1S,3S)-3-(but-2-ynamido)cyclopentyl)-5-fluoro-2,3-dimethyl-1H-indole-7-carboxamide]
12 | < 8.00 | CC#CC(=O)N[C@@H]1CC[C@H](c2c(F)cc(C(N)=O)c3[nH]c(C)c(C)c23)C1 [13-(1S,3R), 4-((1S,3R)-3-(but-2-ynamido)cyclopentyl)-5-fluoro-2,3-dimethyl-1H-indole-7-carboxamide]
13 | < 8.00 | CC#CC(=O)N[C@H]1CCC[C@H](c2c(F)c(F)c(C(N)=O)c3[nH]c(C)c(C#N)c23)C1 [Compound 7-(1S,3S), 4-((1S,3S)-3-(but-2-ynamido)cyclohexyl)-3-cyano-5,6-difluoro-2-methyl-1H-indole-7-carboxamide]
14 | 8.00 to 9.00 | CC#CC(=O)N[C@@H]1CCC[C@@H](c2c(F)c(F)c(C(N)=O)c3[nH]c(C)c(F)c23)C1 [Compound 8-(1R,3R), 4-((1R,3R)-3-(but-2-ynamido)cyclohexyl)-3,5,6-trifluoro-2-methyl-1H-indole-7-carboxamide]
15 | 8.00 to 9.00 | CC#CC(=O)N[C@H]1CCC[C@@H](c2c(F)c(F)c(C(N)=O)c3[nH]c(C)c(F)c23)C1 [Compound 8-(1R,3S), 4-((1R,3S)-3-(but-2-ynamido)cyclohexyl)-3,5,6-trifluoro-2-methyl-1H-indole-7-carboxamide]
16 | < 8.00 | CC#CC(=O)N[C@@H]1CCC[C@H](c2c(F)c(F)c(C(N)=O)c3[nH]c(C)c(F)c23)C1 [Compound 8-(1S,3R), 4-((1S,3R)-3-(but-2-ynamido)cyclohexyl)-3,5,6-trifluoro-2-methyl-1H-indole-7-carboxamide]
17 | < 8.00 | CC#CC(=O)N[C@H]1CCC[C@H](c2c(F)c(F)c(C(N)=O)c3[nH]c(C)c(F)c23)C1 [Compound 8-(1S,3S), 4-((1S,3S)-3-(but-2-ynamido)cyclohexyl)-3,5,6-trifluoro-2-methyl-1H-indole-7-carboxamide]
18 | < 8.00 | CC#CC(=O)N[C@@H]1CCC[C@@H](c2c(F)c(F)c(C(N)=O)c3[nH]c(C)c(C)c23)C1 [Compound 9-(1R,3R), 4-((1R,3R)-3-(but-2-ynamido)cyclohexyl)-5,6-difluoro-2,3-dimethyl-1H-indole-7-carboxamide]
19 | < 8.00 | CC#CC(=O)N[C@H]1CCC[C@@H](c2c(F)c(F)c(C(N)=O)c3[nH]c(C)c(C)c23)C1 [Compound 9-(1R,3S), 4-((1R,3S)-3-(but-2-ynamido)cyclohexyl)-5,6-difluoro-2,3-dimethyl-1H-indole-7-carboxamide]
20 | 8.00 to 9.00 | CC#CC(=O)N[C@@H]1CCC[C@H](c2c(F)c(F)c(C(N)=O)c3[nH]c(C)c(C)c23)C1 [Compound 9-(1S,3R), 4-((1S,3R)-3-(but-2-ynamido)cyclohexyl)-5,6-difluoro-2,3-dimethyl-1H-indole-7-carboxamide]
21 | 8.00 to 9.00 | CC#CC(=O)N[C@H]1CCC[C@H](c2c(F)c(F)c(C(N)=O)c3[nH]c(C)c(C)c23)C1 [Compound 9-(1S,3S), 4-((1S,3S)-3-(but-2-ynamido)cyclohexyl)-5,6-difluoro-2,3-dimethyl-1H-indole-7-carboxamide]
